ChEMBL document CHEMBL1201862, “PubChem BioAssay data set” (2004)
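Cells were grown in 96-well plates and exposed to each compound for 48 hours at five concentrations; endpoints were interpolated linearly between bracketing concentrations, or set to the highest concentration if not reached. GI50: concentration for 50% inhibition of growth.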 Calls of active or inactive are those of the source. Cut-off read from the data, not from the text of the source: active = GI50 up to about 1.1 µM and inactive = higher.

Key:
Assay in all cases: NCI-60 cell line screen, 48 h
[1] = tested on: RXF 393
[2] = tested on: SN12C
[3] = tested on: T47D
[4] = tested on: IGROV-1
[5] = tested on: MDA-MB-435
[6] = tested on: Hs-578T
[7] = tested on: NCI-H23
[8] = tested on: HCT-15
[9] = tested on: PC-3
[10] = tested on: UACC-257
[11] = tested on: DLD-1
[12] = tested on: SF-268
[13] = tested on: NCI/ADR-RES
[14] = tested on: HCT-116
[15] = tested on: NCI-H226
[16] = tested on: NCI-H460
[17] = tested on: K562
[18] = tested on: SK-OV-3
[19] = tested on: EKVX
[20] = tested on: SNB-75

Structure (SMILES)	GI50 [1]	GI50 [2]	GI50 [3]	GI50 [4]	GI50 [5]	GI50 [6]	GI50 [7]	GI50 [8]	GI50 [9]	GI50 [10]	GI50 [11]	GI50 [12]	GI50 [13]	GI50 [14]	GI50 [15]	GI50 [16]	GI50 [17]	GI50 [18]	GI50 [19]	GI50 [20]
N#CC(C(=O)/C(=N/Nc1nc(S)nn1N)C(C#N)c1ccccc1)c1ccccc1 (stereo not drawn)	> 100 µM (inactive)	> 100 µM (inactive)	> 100 µM (inactive)	> 100 µM (inactive)	> 100 µM (inactive)	> 100 µM (inactive)	> 100 µM (inactive)	> 100 µM	> 100 µM (inactive)	> 100 µM (inactive)	> 100 µM (inactive)	> 100 µM (inactive)	> 100 µM (inactive)	> 100 µM (inactive)	> 100 µM (inactive)	> 100 µM (inactive)	> 100 µM (inactive)	> 100 µM (inactive)	> 100 µM (inactive)	> 100 µM (inactive)
COc1ccc2c(c1)c(=O)c1c(NCCCN(C)C)ccc3ncn2c31	0.366 µM (active)	1.72 µM (inactive)	16.3 µM (inactive)	3.5 µM (inactive)	6.05 µM (inactive)	10.6 µM (inactive)	5.87 µM (inactive)	1.44 µM	2.65 µM (inactive)	12.2 µM (inactive)	1.14 µM (inactive)	1.31 µM (inactive)	0.832 µM (active)	0.188 µM (active)	2.9 µM (inactive)	1.39 µM (inactive)	2.92 µM (inactive)	8.38 µM (inactive)	13.8 µM (inactive)	6.3 µM (inactive)
O=C(NC1=C(Cl)C(=O)c2ccccc2C1=O)C(=O)C(C(=O)c1ccc2ccccc2c1)C1OC(=O)c2ccccc21 (stereo not drawn)	4.49 µM (inactive)	4.36 µM (inactive)	5.35 µM (inactive)	7.73 µM (inactive)	1.7 µM (inactive)	6.25 µM (inactive)	2.9 µM (inactive)	3.77 µM		2.19 µM (inactive)	4.31 µM (inactive)	4.53 µM (inactive)		3.52 µM (inactive)	0.986 µM (active)	2.96 µM (inactive)	3.55 µM (inactive)	13.2 µM (inactive)	12 µM (inactive)	2.87 µM (inactive)
Cc1cc(N(CCOS(C)(=O)=O)CCOS(C)(=O)=O)ccc1/C=N/c1ccc(-c2nc(Cc3ccccc3)sc2C)cc1	0.933 µM (active)	5.4 µM (inactive)	2.03 µM (inactive)	10.7 µM (inactive)	11 µM (inactive)	10.6 µM (inactive)	2.91 µM (inactive)	11.2 µM	10.3 µM (inactive)	12.1 µM (inactive)	12.8 µM (inactive)	3.99 µM (inactive)	10.6 µM (inactive)	15.2 µM (inactive)	2.2 µM (inactive)	0.0281 µM (active)	5.61 µM (inactive)	0.494 µM (active)	4.27 µM (inactive)	1.66 µM (inactive)
COc1cccc2c1C(=O)OC2c1cccc2ccccc12 (stereo not drawn)	31.5 µM (inactive)	> 100 µM (inactive)	> 100 µM (inactive)	> 100 µM (inactive)	> 100 µM (inactive)	33 µM (inactive)	> 100 µM (inactive)	> 100 µM	> 100 µM (inactive)	> 91 µM (inactive)	> 100 µM (inactive)	72.8 µM (inactive)	53.3 µM (inactive)	> 96.6 µM (inactive)	92.9 µM (inactive)	98.9 µM (inactive)	> 100 µM (inactive)	> 73.6 µM (inactive)	> 100 µM (inactive)	23.8 µM (inactive)
N#CC(N)(C(=O)C(=O)NCCCNC(=O)C(=O)C(N)(C#N)c1ccc(Cl)cc1)c1ccc(Cl)cc1 (stereo not drawn)	> 100 µM (inactive)	> 100 µM (inactive)		> 100 µM (inactive)			> 100 µM (inactive)	> 100 µM		> 100 µM (inactive)	> 100 µM (inactive)	> 100 µM (inactive)		> 100 µM (inactive)	> 100 µM (inactive)	> 100 µM (inactive)	95.3 µM (inactive)	> 100 µM (inactive)	> 100 µM (inactive)	> 100 µM (inactive)
CS/C(c1ccccc1)=[N+](\[O-])Cc1ccccc1	> 100 µM (inactive)	> 100 µM (inactive)		> 100 µM (inactive)			> 100 µM (inactive)	16.7 µM		> 100 µM (inactive)	> 100 µM (inactive)	> 100 µM (inactive)		> 100 µM (inactive)	> 100 µM (inactive)	33.6 µM (inactive)	> 100 µM (inactive)	> 100 µM (inactive)	> 100 µM (inactive)	> 100 µM (inactive)
